Test results taken from publication PMC11677724, “Preclinical Study of a Dual-Target Molecular Probe Labeled with ^68Ga Targeting SSTR2 and FAP” (Pharmaceuticals, 2024).

Legend:
[1] = Partition coefficient (log P), n-octanol/PBS; assay type: physicochemical
Method: In a 15 mL centrifuge tube, 2.9 mL of PBS (0.1 mol/L, pH = 7.4) and 3 mL of n-octanol were added. [^68Ga]Ga-TATE-46, [^68Ga]Ga-DOTA-TATE, or [^68Ga]Ga-FAPI-46 (14.8 MBq, 100 µL) were added to each tube. The mixture was vortexed at room temperature for 2 min to ensure thorough blending, and then centrifuged at room temperature (effective centrifuge radius 12 cm, 3000 rpm) for 5 min. After allowing sufficient time for phase separation, three 500 µL samples were taken from each layer. The radioactivity of each sample was measured using a γ-counter (count per minute, CPM), and log p = log (n-octanol CPM/water CPM) was calculated. The experiment was repeated three times.

[2] = Pharmacokinetics, blood time-activity curves, two-compartment model; assay type: in vivo, BALB/c mice
Method: Nine female healthy BALB/c mice were randomly divided into three groups (with three mice in each group) using a random number table. Each group was administered 100 µL of [^68Ga]Ga-TATE-46, [^68Ga]Ga-DOTA-TATE, or [^68Ga]Ga-FAPI-46 (0.37 MBq) via tail vein injection. Blood samples (5 µL × 3) were collected at 2, 5, 10, 15, 30, 60, 90, and 120 min post-injection via tail vein. The radioactivity in the blood was measured with a γ-counter and converted to blood radioactivity concentration (kBq/mL). The pharmacokinetic data (time–blood radioactivity concentration) were analyzed by using the two-compartment model in the pharmacokinetic software WinNonlin (Certara, Louis, MO, USA, 2018-06) to determine the distribution and clearance half-life parameters of the radiopharmaceuticals in the mice.

[3] = Ex vivo biodistribution in NCI-H727 tumor-bearing mice; settings: female, BALB/c nude, mouse, in vivo, 1.48 MBq, total radioactivity, Biodistribution
Method: (§1) Female BALB/c nude mice were obtained from Charles River Laboratories (Beijing, China). […] Approximately 5 × 10^6 cells were implanted into the right shoulder of each mouse to establish an NCI-H727 tumor model and Mc38 tumor model. Once the tumor volume reached 200–300 mm^3, the mice were used for imaging or biodistribution studies. All animal experiments were carried out in accordance with the National Institutes of Health Guidelines for the Care and Use of Laboratory Animals and were approved by the Animal Protection and Utilization Committee of the General Hospital of the PLA (Approval No.: S2023-209-1).
(§2) The NCI-H727 tumor-bearing mice were randomly assigned to four groups (with three mice in each group) and were injected with [^68Ga]Ga-TATE-46 (1.48 MBq, 100 µL). The mice were put to death at 0.5, 1, 2, and 4 h post-injection (p.i.). The tissues and organs of concern were gathered, weighed, and measured for radioactivity using a γ-counter. Additionally, [^68Ga]Ga-DOTA-TATE and [^68Ga]Ga-FAPI-46 were used as control groups in the biodistribution study of the NCI-H727 tumor model at 1 h p.i. After performing time decay correction, the radiotracer uptake in each tissue and organ was calculated as %ID/g.

[4] = test system: NCI-H727 tumor-bearing mice; assay: as above; settings: 1 h p.i., γ-counter, mean ± SD, n=3
Method: as §1, §2

[5] = female healthy BALB/c mice, n = 3 per group, 0.37 MBq tail vein, blood 2-120 min, γ-counter, two-compartment model (WinNonlin)

C[C@@H](O)[C@H](NC(=O)[C@@H]1CSSC[C@H](NC(=O)[C@@H](Cc2ccccc2)NC(=O)CN2CCN(CC(=O)O)CCN(CC(=O)O)CCN(CC(=O)O)CC2)C(=O)N[C@@H](Cc2ccc(O)cc2)C(=O)N[C@H](Cc2c[nH]c3ccccc23)C(=O)N[C@@H](CCCCN)C(=O)N[C@@H]([C@@H](C)O)C(=O)N1)C(=O)O [[^68Ga]Ga-DOTA-TATE, metal not drawn, reference compound]
logD ([1]; pH 7.4): -3.02 ± 0.08 | distribution half-life ([2]; mouse, in vivo): 1.38 min | elimination half-life ([2]; mouse, in vivo): 19.50 min | tissue uptake at 1 h ([3]; Blood): 0.42 ± 0.15 %ID/g | tissue uptake at 1 h ([3]; Brain): 0.03 ± 0.01 %ID/g | tissue uptake at 1 h ([3]; Heart): 0.23 ± 0.09 %ID/g | tissue uptake at 1 h ([3]; Intestine): 1.48 ± 0.11 %ID/g | tissue uptake at 1 h ([3]; Kidney): 9.18 ± 3.65 %ID/g | tissue uptake at 1 h ([3]; Liver): 1.35 ± 0.28 %ID/g | tissue uptake at 1 h ([3]; Lung): 5.22 ± 0.82 %ID/g | tissue uptake at 1 h ([3]; Spleen): 1.22 ± 0.11 %ID/g | tissue uptake at 1 h ([3]; Stomach): 7.98 ± 0.89 %ID/g | tissue uptake at 1 h ([3]; Tumor (tumor uptake)): 1.57 ± 0.17 %ID/g

CN(CCCN1CCN(C(=O)CN2CCN(CC(=O)[O-])CCN(CC(=O)[O-])CCN(CC(=O)[O-])CC2)CC1)c1ccc2nccc(C(=O)NCC(=O)N3CC(F)(F)C[C@H]3C#N)c2c1.[68Ga+3] [[^68Ga]Ga-FAPI-46, reference compound]
Log p ([1]; shake-flask n-octanol/PBS (0.1 mol/L, pH 7.4), 14.8 MBq in 100 µL, vortexed 2 min at room temperature, centrifuged 3000 rpm 5 min, γ-counter CPM, mean ± SD, repeated three times): −3.05 ± 0.04 | distribution half-life [2, 5]: 0.64 min | elimination half-life [2, 5]: 21.77 min | Biodistribution, Tumor (tumor uptake) ([4]; NCI-H727 tumor): 1.07 ± 0.01 %ID/g | Biodistribution, Blood ([4]; NCI-H727 tumor-bearing mice): 1.05± 0.05 %ID/g | Biodistribution, Bone ([4]; NCI-H727 tumor-bearing mice): 0.51± 0.05 %ID/g | Biodistribution, Brain ([4]; NCI-H727 tumor-bearing mice): 0.05± 0.01 %ID/g | Biodistribution, Heart ([4]; NCI-H727 tumor-bearing mice): 0.39± 0.16 %ID/g | Biodistribution, Intestine ([4]; NCI-H727 tumor-bearing mice): 0.38± 0.01 %ID/g | Biodistribution, Kidney ([4]; NCI-H727 tumor-bearing mice): 2.25± 0.12 %ID/g | Biodistribution, Liver ([4]; NCI-H727 tumor-bearing mice): 2.56± 0.95 %ID/g | Biodistribution, Lung ([4]; NCI-H727 tumor-bearing mice): 3.17± 0.79 %ID/g | Biodistribution, Muscle ([4]; NCI-H727 tumor-bearing mice): 0.18± 0.02 %ID/g | Biodistribution, Spleen ([4]; NCI-H727 tumor-bearing mice): 3.75± 0.75 %ID/g | Biodistribution, Stomach ([4]; NCI-H727 tumor-bearing mice): 0.38± 0.01 %ID/g
